Test [1] can be described thus: Cytotoxicity against human HL60 cells after 48 hrs by MTT assay. The format is functional, cell-based. Conditions: HL-60, 48 h.
Another test deals with 1A9. In words: Cytotoxicity against human 1A9 cells after 48 hrs by MTT assay. Type of test: functional, cell-based. As to conditions: 1A9, 48 h.
The test system of test [2] is Mycolicibacterium smegmatis. In words: Bacteriostatic activity against Mycobacterium smegmatis after 96 hrs by resazurin fluorescence assay. Type of test: functional.

The structures appear in SMILES notation. Values after ≈ are worked out from the molar mass of the structure shown. Some results are limits rather than exact numbers.

Take `N[C@@H](CSC(Cl)=C(Cl)Cl)C(=O)N[C@@H]1[C@@H](O)[C@H](O)[C@@H](CO)O[C@@H]1SC1CCCCC1`: the IC50 was 76 µM in test [1] and 79 µM in the test on 1A9. Besides, inhibition of growth in test [2] (MIC) required 250 µM (≈ 127 µg/mL).

Regarding `N[C@@H](CSC(Cl)=C(Cl)Cl)C(=O)N[C@@H]1[C@@H](O)[C@H](O)[C@@H](CO)O[C@H]1SC1CCCCC1`, the IC50 in test [1] came out at 112 µM; in the test with 1A9, 121 µM. The compound further yielded a minimum inhibitory concentration (MIC) in test [2] of 250 µM (≈ 127 µg/mL).

On to `CC(C)(C)OC(=O)N[C@@H](CSC(Cl)=C(Cl)Cl)C(=O)N[C@@H]1[C@@H](O)[C@H](O)[C@@H](CO)O[C@H]1SC1CCCCC1`, for which the 50% inhibitory concentration (IC50) in test [1] came out at 16.5 µM; in the test with 1A9 it was 33 µM. The compound further returned a minimum inhibitory concentration (MIC) in test [2] greater than 1000 µM.

With `CC(C)(C)OC(=O)N[C@@H](CSC(Cl)=C(Cl)Cl)C(=O)N[C@@H]1[C@@H](O)[C@H](O)[C@@H](CO)O[C@@H]1SC1CCCCC1`, the concentration for half-maximal inhibition (IC50) in test [1] is 60 µM; in the test on 1A9 it was 103 µM. In addition, the MIC in test [2] was greater than 1000 µM.

Values taken from ChEMBL document CHEMBL3399990, “Synthesis of mycothiol conjugate analogues and evaluation of their antimycobacterial activity” (Bioorg Med Chem Lett, 2015).
